The values that follow are results of earlier work, collected in patent US8309061B2, “Formulations and methods for treating rhinosinusitis” (Dey Pharma, L.P., priority 2003, dated 2012).

`CCC(=O)O[C@]1(C(=O)SCF)[C@H](C)C[C@H]2[C@@H]3C[C@H](F)C4=CC(=O)C=C[C@]4(C)[C@@]3(F)[C@@H](O)C[C@@]21C` [Fluticasone propionate, S-(fluromethyl)6α,9-difluoro-11β-17-dihydroxy-16α-methyl-3-oxoandrosta-1,4-diene-17β-carbothioate, 17-propionate]: for the setting “dimethyl sulfoxide and dimethylformamide”, the “solubility in dimethyl sulfoxide and dimethylformamide” value was “freely soluble”. Besides, under “methanol and 95% ethanol”, the “solubility in methanol and 95% ethanol” value was “slightly soluble”. Further, the solubility in water entry (water) is recorded as “practically insoluble”.
